According to PubChem BioAssay AID1259411 (Chemical Carcinogenesis Research Information System (CCRIS), 2018):
Calls of active or inactive are those of the source. How the calls were made is not given here.

Test system: rodent carcinogenicity bioassays, tumor incidence
Test: CCRIS carcinogenicity studies
Summary of the method: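 NCI-built, expert-reviewed records of carcinogenicity and related test outcomes (mutagenicity, tumor promotion/inhibition) compiled from published and report sources, historical span 1985-2011, not updated.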

SMILES: CCC1C(c2ccc(O)cc2)=C(C)c2cc(O)ccc21 (centres undefined)
- carcinogen call (Species: HAMSTER, Strain/Sex: SYRIAN/MALE, Route: SUBCUTANEOUS IMPLANT, Dose: 0, 20 MG IN PELLETS IMPLANTED EVERY 2.5 MO FOR 9 MO (STUDY DURATION: 9 MO), Tumor Site: Type of Lesion: KIDNEY: TUMOR): active; positive

SMILES: Cc1ccc(N=Nc2c(O)c(C(=O)O)cc3ccccc23)c(S(=O)(=O)O)c1
- carcinogen call (Species: MOUSE, Strain/Sex: ICR/FEMALE, Route: DERMAL, Dose: 0, 1 MG IN 0.1 ML DISTILLED WATER 2/WK FOR A MEAN TOTAL DOSE OF 130.6 MG (STUDY DURATION: 18 MO)): inactive; negative
- carcinogen call (Species: MOUSE, Strain/Sex: ICR/MALE, Route: DERMAL, Dose: 0, 1 MG IN 0.1 ML DISTILLED WATER 2/WK FOR A MEAN TOTAL DOSE OF 130.6 MG (STUDY DURATION: 18 MO)): inactive; negative

SMILES: c1ccc2c(c1)ccc1c3ccccc3ccc21
- carcinogen call (Species: MOUSE, Route: DERMAL, Tumor Site: Type of Lesion: INTEGUMENTARY SYSTEM (SKIN)): active; positive
- carcinogen call (Species: MOUSE, Strain/Sex: ICR/FEMALE, Route: DERMAL, Dose: 0, 0.1 MG, 3/WK FOR 17 MO, Tumor Site: Type of Lesion: INTEGUMENTARY SYSTEM (SKIN): CARCINOMA): active; positive
- carcinogen call (Species: MOUSE, Strain/Sex: ICR/FEMALE, Route: INTRAPERITONEAL, Dose: 0, 6.3 UG TOTAL DOSE (0.9 UG/5 µL, 1.8 UG/10 µL, 3.6 UG/20 µL DMSO ON DAYS 1, 8 AND 15), 210 UG TOTAL DOSE (30 UG/5 µL,, Dose: 0, 6.3 UG TOTAL DOSE (0.9 UG/5 µL, 1.8 UG/10 µL, 3.6 UG/20 µL DMSO ON DAYS 1, 8 AND 15), 210 UG TOTAL DOSE (30 UG/5 µL): inactive; negative
- carcinogen call (Species: MOUSE, Strain/Sex: ICR/MALE, Route: INTRAPERITONEAL, Dose: 0, 6.3 UG TOTAL DOSE (0.9 UG/5 µL, 1.8 UG/10 µL, 3.6 UG/20 µL DMSO ON DAYS 1, 8 AND 15), 210 UG TOTAL DOSE (30 UG/5 µL,, Dose: 0, 6.3 UG TOTAL DOSE (0.9 UG/5 µL, 1.8 UG/10 µL, 3.6 UG/20 µL DMSO ON DAYS 1, 8 AND 15), 210 UG TOTAL DOSE (30 UG/5 µL): inactive; negative
- carcinogen call (Species: RAT, Strain/Sex: OSBORNE-MENDEL/FEMALE, Route: INTRAPULMONARY IMPLANT, Dose: 0, 1, 3 MG IN BEESWAX AND TRIOCTANOIN IMPLANTED IN LUNG (STUDY DURATION: 141 WK), Dose: 0, 1, 3 MG IN BEESWAX AND TRIOCTANOIN IMPLANTED IN LUNG (STUDY DURATION: 141 WK), Tumor Site: Type of Lesion: LUNG: CARCINOMA): active; positive

SMILES: Oc1ccc(-c2c(Cl)cc(Cl)cc2Cl)cc1
- carcinogen call (Species: MOUSE, Strain/Sex: BALB/CCRGL/FEMALE, Route: SUBCUTANEOUS, Dose: 20 UG DAILY FOR 5 D BEGINNING 16 HR AFTER BIRTH (STUDY DURATION: 20 MO), Tumor Site: Type of Lesion: MAMMARY GLAND: CARCINOMA (5/33), CERVICOVAGINAL TRACT: CARCINOMA (2/33), LUNG TUMORS (3/33), Tumor Site: Type of Lesion: MAMMARY GLAND: CARCINOMA (5/33), CERVICOVAGINAL TRACT: CARCINOMA (2/33), LUNG TUMORS (3/33)): active; positive; (statistically significant for total number of tumors)
- carcinogen call (Species: MOUSE, Strain/Sex: BALB/CCRGL/FEMALE, Route: SUBCUTANEOUS, Dose: 200 UG DAILY FOR 5 D BEGINNING 16 HR AFTER BIRTH (STUDY DURATION: 20 MO), Tumor Site: Type of Lesion: CERVICOVAGINAL TRACT: CARCINOMA (10/22)): active; positive

SMILES: CC1(C)S[C@@H]2[C@H](NC(=O)[C@H](N)c3ccccc3)C(=O)N2[C@H]1C(=O)O
- carcinogen call (Species: MOUSE, Strain/Sex: B6C3F1/FEMALE, Route: GAVAGE, Dose: 0, 1500, 3000 MG/KG IN CORN OIL 5 D/WK FOR 103-104 WK (STUDY DURATION: 106 WK), Dose: 0, 1500, 3000 MG/KG IN CORN OIL 5 D/WK FOR 103-104 WK (STUDY DURATION: 106 WK)): inactive; negative
- carcinogen call (Species: MOUSE, Strain/Sex: B6C3F1/FEMALE, Route: GAVAGE, Dose: 0, 1500, 3000 MG/KG IN CORN OIL 5 D/WK FOR 103 WK, Dose: 0, 1500, 3000 MG/KG IN CORN OIL 5 D/WK FOR 103 WK): inactive; negative
- carcinogen call (Species: MOUSE, Strain/Sex: B6C3F1/MALE, Route: GAVAGE, Dose: 0, 1500, 3000 MG/KG IN CORN OIL 5 D/WK FOR 103-104 WK (STUDY DURATION: 106 WK), Dose: 0, 1500, 3000 MG/KG IN CORN OIL 5 D/WK FOR 103-104 WK (STUDY DURATION: 106 WK)): inactive; negative
- carcinogen call (Species: MOUSE, Strain/Sex: B6C3F1/MALE, Route: GAVAGE, Dose: 0, 1500, 3000 MG/KG IN CORN OIL 5 D/WK FOR 103 WK, Dose: 0, 1500, 3000 MG/KG IN CORN OIL 5 D/WK FOR 103 WK): inactive; negative
- carcinogen call (Species: RAT, Strain/Sex: F344/FEMALE, Route: GAVAGE, Dose: 0, 750, 1500 MG/KG IN CORN OIL 5 D/WK FOR 103-104 WK (STUDY DURATION: 106 WK), Dose: 0, 750, 1500 MG/KG IN CORN OIL 5 D/WK FOR 103-104 WK (STUDY DURATION: 106 WK)): inactive; negative
- carcinogen call (Species: RAT, Strain/Sex: F344/FEMALE, Route: GAVAGE, Dose: 0, 750, 1500 MG/KG IN CORN OIL 5 D/WK FOR 103 WK, Dose: 0, 750, 1500 MG/KG IN CORN OIL 5 D/WK FOR 103 WK): inactive; negative
- carcinogen call (Species: RAT, Strain/Sex: F344/MALE, Route: GAVAGE, Dose: 0, 750, 1500 MG/KG IN CORN OIL 5 D/WK FOR 103 WK (STUDY DURATION: 105 WK), Dose: 0, 750, 1500 MG/KG IN CORN OIL 5 D/WK FOR 103 WK (STUDY DURATION: 105 WK), Tumor Site: Type of Lesion: ADRENAL MEDULLA: PHEOCHROMOCYTOMAS, HEMATOPOIETIC SYSTEM: MONONUCLEAR CELL LEUKEMIA): equivocal

SMILES: CCOC(=O)c1ccccc1C(=O)OCC
- carcinogen call (Species: MOUSE, Strain/Sex: B6C3F1/FEMALE, Route: DERMAL, Dose: 0, 7.5, 15, 30 µL/100 µL IN ACETONE 5 D/WK FOR 104-105 WK (STUDY DURATION: 104-105 WK), Dose: 0, 7.5, 15, 30 µL/100 µL IN ACETONE 5 D/WK FOR 104-105 WK (STUDY DURATION: 104-105 WK), Tumor Site: Type of Lesion: LIVER: HEPATOCELLULAR ADENOMA, HEPATOCELLULAR ADENOMA OR CARCINOMA): equivocal
- carcinogen call (Species: MOUSE, Strain/Sex: B6C3F1/MALE, Route: DERMAL, Dose: 0, 7.5, 15, 30 µL/100 µL IN ACETONE 5 D/WK FOR 104-105 WK (STUDY DURATION: 104-105 WK), Dose: 0, 7.5, 15, 30 µL/100 µL IN ACETONE 5 D/WK FOR 104-105 WK (STUDY DURATION: 104-105 WK), Tumor Site: Type of Lesion: LIVER: HEPATOCELLULAR ADENOMA, HEPATOCELLULAR ADENOMA OR CARCINOMA): equivocal
- carcinogen call (Species: RAT, Strain/Sex: F344/FEMALE, Route: DERMAL, Dose: 0, 100, 300 µL IN ACETONE 5 D/WK FOR 104 WK (STUDY DURATION: 104 WK), Dose: 0, 100, 300 µL IN ACETONE 5 D/WK FOR 104 WK (STUDY DURATION: 104 WK)): inactive; negative
- carcinogen call (Species: RAT, Strain/Sex: F344/MALE, Route: DERMAL, Dose: 0, 100, 300 µL IN ACETONE 5 D/WK FOR 104 WK (STUDY DURATION: 104 WK), Dose: 0, 100, 300 µL IN ACETONE 5 D/WK FOR 104 WK (STUDY DURATION: 104 WK)): inactive; negative

SMILES: C[C@]12C/C(=C/O)C(=O)C[C@@H]1CC[C@@H]1[C@@H]2CC[C@@]2(C)[C@H]1CC[C@]2(C)O
- carcinogen call (Species: HUMAN, Route: ORAL, Tumor Site: Type of Lesion: LIVER): active; positive
- carcinogen call (Species: RAT, Strain/Sex: F344/N/FEMALE, Route: GAVAGE, Dose: 0, 3, 30, 100 MG/KG IN 0.5% METHYLCELLULOSE FOR 104 WK (STUDY DURATION: 104 WK), Dose: 0, 3, 30, 100 MG/KG IN 0.5% METHYLCELLULOSE FOR 104 WK (STUDY DURATION: 104 WK), Tumor Site: Type of Lesion: LIVER: HEPATOCELLULAR ADENOMA, HEPATOCELLULAR ADENOMA OR CARCINOMA, LUNG: ALVEOLAR/BRONCHIOLAR ADENOMA, ALVEOLAR/BRONCHI): active; positive
- carcinogen call (Species: RAT, Strain/Sex: F344/N/MALE, Route: GAVAGE, Dose: 0, 3, 30, 150 MG/KG IN 0.5% METHYLCELLULOSE FOR 104 WK (STUDY DURATION: 104 WK), Dose: 0, 3, 30, 150 MG/KG IN 0.5% METHYLCELLULOSE FOR 104 WK (STUDY DURATION: 104 WK), Tumor Site: Type of Lesion: SKIN (SUBCUTANEOUS TISSUE): FIBROMA, FIBROMA OR FIBROSARCOMA, ADRENAL GLAND: BENIGN PHEOCHROMOCYTOMA, BENIGN PHEOCHROMOC): equivocal
